Results: patent US20240192196A1, “NOVEL C[…]-CoV-2 SAFE REPLICON SYSTEM AND USE THEREOF” (SUN YAT-SEN UNIVERSITY, priority 2020, published 2024)

Test system: novel coronavirus SARS-COV-2 safe replicon system
Experiment: microbe, parasite or virus in culture
Assay type: cell-based
Details: Severe acute respiratory syndrome coronavirus 2, HEK-293T, read-out: IC50 (semi-inhibitory concentration), inhibition of cellular luciferase activity

| Structure (SMILES) | IC50 [µM] |
| --- | --- |
| Cc1cccc(C)c1OCC(=O)N[C@@H](Cc1ccccc1)[C@@H](O)C[C@H](Cc1ccccc1)NC(=O)[C@H](C(C)C)N1CCCNC1=O [Lopinavir] | 6.79 ± 1.09 |
| CCC(CC)COC(=O)[C@H](C)N[P@](=O)(OC[C@H]1O[C@@](C#N)(c2ccc3c(N)ncnn23)[C@H](O)[C@@H]1O)Oc1ccccc1 [Remdesivir] | 12.4 ± 1.08 |
